# Laboratory results taken from PubChem BioAssay AID328 (DTP/NCI, 2004).
# Where “and” joins values, the source holds several entries; their conditions need not be identical. Equal values may be shown once. Inconclusive results and toxic doses are left out.
# Tested on: BDF1 mice, P388 leukemia ip, median survival T/C
# Assay: NCI In Vivo Anticancer Drug Screen. Data for tumor model P388 Leukemia (intraperitoneal) in B6D2F1 (BDF1) mice
# Settings: endpoint: median survival time, higher = longer survival
# Summary of the method: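 Survival ratio, drug arm over vehicle arm, in mice with a transplanted tumour.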
smiles,measurement,setting,value
COC1=C(N)C(=O)c2nc(-c3nc(C(=O)O)c(C)c(-c4ccc(OC)c(OC)c4O)c3N)ccc2C1=O,T/C,"dose: 0.01 mg/kg/injection, schedule: Q01DX010 (ip), vehicle: saline",110 % of control
same,T/C,"dose: 0.02 mg/kg/injection, schedule: Q01DX009 (ip), vehicle: other",118 % of control
same,T/C,"dose: 0.03 mg/kg/injection, schedule: Q01DX009 (ip), vehicle: dioxane",97 % of control
same,T/C,"dose: 0.03 mg/kg/injection, schedule: Q01DX009 (ip), vehicle: saline",114 % of control
same,T/C,"dose: 0.04 mg/kg/injection, schedule: Q01DX009 (ip), vehicle: dioxane",99 % of control and 100 % of control
same,T/C,"dose: 0.05 mg/kg/injection, schedule: Q01DX009 (ip), vehicle: dioxane",114 % of control
same,T/C,"dose: 0.05 mg/kg/injection, schedule: Q01DX009 (ip), vehicle: saline",161 % of control
same,T/C,"dose: 0.05 mg/kg/injection, schedule: Q01DX010 (ip), vehicle: water",118 % of control
same,T/C,"dose: 0.05 mg/kg/injection, schedule: Q04DX002 (ip), vehicle: saline",112 % of control
same,T/C,"dose: 0.06 mg/kg/injection, schedule: Q01DX009 (ip), vehicle: dioxane",114 % of control
same,T/C,"dose: 0.1 mg/kg/injection, schedule: Q01DX009 (ip), vehicle: saline",152 % of control
same,T/C,"dose: 0.1 mg/kg/injection, schedule: Q01DX010 (ip), vehicle: saline",118 % of control
same,T/C,"dose: 0.1 mg/kg/injection, schedule: Q04DX003 (ip), vehicle: other",118 % of control
same,T/C,"dose: 0.13 mg/kg/injection, schedule: Q01DX009 (oral), vehicle: other",109 % of control
same,T/C,"dose: 0.2 mg/kg/injection, schedule: Q01DX001 (ip), vehicle: other",118 % of control
same,T/C,"dose: 0.2 mg/kg/injection, schedule: Q01DX010 (ip), vehicle: water",118 % of control
same,T/C,"dose: 0.2 mg/kg/injection, schedule: Q04DX002 (ip), vehicle: saline",114 % of control
same,T/C,"dose: 0.2 mg/kg/injection, schedule: Q04DX003 (ip), vehicle: other",118 % of control
same,T/C,"dose: 0.2 mg/kg/injection, schedule: Q08DX002 (ip), vehicle: other",118 % of control
same,T/C,"dose: 0.25 mg/kg/injection, schedule: Q01DX009 (oral), vehicle: other",109 % of control
same,T/C,"dose: 0.4 mg/kg/injection, schedule: Q01DX001 (ip), vehicle: other",118 % of control
same,T/C,"dose: 0.5 mg/kg/injection, schedule: Q01DX001 (ip), vehicle: other",122 % of control
same,T/C,"dose: 0.5 mg/kg/injection, schedule: Q01DX009 (oral), vehicle: other",109 % of control
same,T/C,"dose: 0.5 mg/kg/injection, schedule: Q03HX008 (ip), vehicle: other",109 % of control
same,T/C,"dose: 0.5 mg/kg/injection, schedule: Q04DX003 (ip), vehicle: other",116 % of control
same,T/C,"dose: 0.8 mg/kg/injection, schedule: Q01DX001 (ip), vehicle: other",113 % of control
same,T/C,"dose: 0.8 mg/kg/injection, schedule: Q01DX009 (ip), vehicle: saline",117 % of control
same,T/C,"dose: 0.8 mg/kg/injection, schedule: Q04DX003 (ip), vehicle: other",118 % of control
same,T/C,"dose: 0.8 mg/kg/injection, schedule: Q08DX002 (ip), vehicle: other",109 % of control
same,T/C,"dose: 1.0 mg/kg/injection, schedule: Q01DX001 (ip), vehicle: other",109 % of control
same,T/C,"dose: 1.0 mg/kg/injection, schedule: Q01DX001 (oral), vehicle: other",118 % of control
same,T/C,"dose: 1.0 mg/kg/injection, schedule: Q01DX009 (oral), vehicle: other",100 % of control
same,T/C,"dose: 1.0 mg/kg/injection, schedule: Q03HX008 (ip), vehicle: other",109 % of control
same,T/C,"dose: 1.0 mg/kg/injection, schedule: Q08DX002 (ip), vehicle: other",100 % of control
same,T/C,"dose: 2.0 mg/kg/injection, schedule: Q01DX001 (oral), vehicle: other",100 % of control
same,T/C,"dose: 2.0 mg/kg/injection, schedule: Q01DX009 (oral), vehicle: other",95 % of control
same,T/C,"dose: 4.0 mg/kg/injection, schedule: Q01DX001 (oral), vehicle: other",95 % of control
same,T/C,"dose: 31.2 micrograms/kg/injection, schedule: Q01DX009 (ip), vehicle: other",116 % of control
same,T/C,"dose: 62.5 micrograms/kg/injection, schedule: Q03HX016 (ip), vehicle: other",116 % of control
same,T/C,"dose: 62.5 micrograms/kg/injection, schedule: Q03HX024 (ip), vehicle: other",116 % of control
same,T/C,"dose: 125.0 micrograms/kg/injection, schedule: Q03HX016 (ip), vehicle: other",100 % of control
same,T/C,"dose: 125.0 micrograms/kg/injection, schedule: Q03HX024 (ip), vehicle: other",91 % of control
same,T/C,"dose: 250.0 micrograms/kg/injection, schedule: Q01DX009 (ip), vehicle: other",116 % of control
same,T/C,"dose: 667.0 micrograms/kg/injection, schedule: Q04DX003 (ip), vehicle: alkali diluted with saline",120 % of control
CC1(C)N=C(N)N=C(N)N1c1ccc(CCc2ccc(S(=O)(=O)F)cc2)c(Cl)c1,T/C,"dose: 33.0 mg/kg/injection, schedule: Q04DX003 (ip), vehicle: saline sonified",122 % of control
same,T/C,"dose: 100.0 mg/kg/injection, schedule: Q01DX009 (ip), vehicle: saline with Tween-80",159 % of control
O=C(/C=C/c1cccc([N+](=O)[O-])c1)NCCBr,T/C,"dose: 100.0 mg/kg/injection, schedule: Q04DX003 (ip), vehicle: saline",90 % of control
same,T/C,"dose: 200.0 mg/kg/injection, schedule: Q04DX003 (ip), vehicle: saline",100 % of control
same,T/C,"dose: 400.0 mg/kg/injection, schedule: Q04DX003 (ip), vehicle: saline",100 % of control
COc1c(Cl)cc(Cl)cc1Cl,T/C,"dose: 100.0 mg/kg/injection, schedule: Q01DX009 (ip), vehicle: other",90 % of control
same,T/C,"dose: 100.0 mg/kg/injection, schedule: Q04DX003 (ip), vehicle: other",90 % of control
same,T/C,"dose: 200.0 mg/kg/injection, schedule: Q01DX009 (ip), vehicle: other",100 % of control
same,T/C,"dose: 200.0 mg/kg/injection, schedule: Q04DX003 (ip), vehicle: other",105 % of control
same,T/C,"dose: 400.0 mg/kg/injection, schedule: Q01DX009 (ip), vehicle: other",114 % of control
same,T/C,"dose: 400.0 mg/kg/injection, schedule: Q04DX003 (ip), vehicle: other",110 % of control
CCCCCCCC(O)CCCC (stereo not given),T/C,"dose: 100.0 mg/kg/injection, schedule: Q04DX003 (ip), vehicle: Klucel (hydroxypropylcellulose) (HPC)",87 % of control
same,T/C,"dose: 200.0 mg/kg/injection, schedule: Q04DX003 (ip), vehicle: Klucel (hydroxypropylcellulose) (HPC)",91 % of control
same,T/C,"dose: 400.0 mg/kg/injection, schedule: Q04DX003 (ip), vehicle: Klucel (hydroxypropylcellulose) (HPC)",91 % of control
O=C(O)c1cc2ccccc2c2cc(Br)ccc12,T/C,"dose: 100.0 mg/kg/injection, schedule: Q04DX003 (ip), vehicle: saline with Tween-80",100 % of control
same,T/C,"dose: 200.0 mg/kg/injection, schedule: Q04DX003 (ip), vehicle: saline with Tween-80",104 % of control
